# From patent US20230123334A1, “AMINO LIPID COMPOUND, PREPARATION METHOD THEREFOR, AND APPLICATION THEREOF” (SHENZHEN SHENXIN BIOTECHNOLOGY CO., LTD., priority 2020, published 2023)
# System: HEK293 cells
# Test: Preliminary screening as DNA vectors, GFP transfection of HEK293 cells
# Type: cell-based
# Details: amino lipid/DOPE liposome with 75 ng plasmid DNA (psin-EGFP-IRES-Puro); number of GFP-expressing cells divided by total nuclei (Hoechst)
# In short: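 First, amino lipid and DOPE were vortexed in sodium acetate buffer (pH 5.6) to form liposomes. Next, these were held with 75 ng EGFP plasmid at room temperature for 30 min. Finally, HEK293 cells were added, cultured at 37° C., Hoechst-stained, and GFP+/total nuclei scored by imaging.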
row,SMILES,Absolute DNA transfection efficiency in HEK293 cells [%]
1,CCCCCCCCCCCCCCCCNc1nc(NCCN(CC)CC)nc(SCCCCCCCCCCCCCC)n1 [S14N16 D7],1.3
2,CCCCCCCCCCCCNc1nc(NCCCN(C)C)nc(SCCCCCCCCCC)n1 [S10N12 D6],19.8
3,CCCCCCCCCCCCCCSc1nc(NCC2CCN(C)CC2)nc(N(CCCCCCCCCCCC)CCCCCCCCCCCC)n1 [S14^2N12 D10],0.0
4,CCCCCCCCCCCCCCSc1nc(NCCCCCCC)nc(NCCN(C)C)n1 [S14N7 D1],12.5
5,CCCCCCCCCCCCCCCCNc1nc(NCCN2CCCC2)nc(SCCCCCCCC)n1 [S8N16 D3],3.3
6,CCCCCCCCCCCCSc1nc(NCCN2CCN(C)CC2)nc(SCCCCCC)n1 [S6S12 D5],28.8
7,CCCCCCCCCCCSc1nc(NCCCCCCCC)nc(NCCCN2CCOCC2)n1 [S11N8 D8],12.2
8,CCCCCCCNc1nc(NCCN2CCCC2)nc(SCCCCCC)n1 [S6N7 D3],0.0
9,CCCCCCCCNc1nc(NCCN(C)C)nc(SCCCCCCC)n1 [S7N8 D1],15.6
10,CCCCCCCCCCCCCCCCCCNc1nc(NCCN2CCCC2)nc(SCCCCCCCCCCCCCCCC)n1 [S16N18 D3],0.6
11,CCCCCCCNc1nc(NCCN2CCOCC2)nc(SCCCCCCC)n1 [S7N7 D2],2.5
12,CCCCCCCCCCCCCCCCSc1nc(NCCCCCCCCC)nc(NCCCN2CCOCC2)n1 [S16N9 D8],6.7
13,CCCCCCCCCCSc1nc(NCCCCCCCCC)nc(NCCCN2CCN(C)CC2)n1 [S10N9 D9],12.0
14,CCCCCCCCCCCCCCCCSc1nc(NCCN(C)C)nc(N(CCCCCCCCCCCC)CCCCCCCCCCCC)n1 [S16^2N12 D1],0.0
15,CCCCCCCCNc1nc(NCCN2CCN(C)CC2)nc(SCCCCCCCC)n1 [S8N8 D5],9.1
16,CCCCCCCCCCCCCCCCCCSc1nc(NCCCCCCCCCCC)nc(NCCCN(C)C)n1 [S18N11 D6],5.2
17,CCCCCCCCCCCCSc1nc(NCCN2CCCCC2)nc(SCCCCCC)n1 [S6S12 D4],3.0
18,CCCCCCCCNc1nc(NCCN2CCCCC2)nc(SCCCCCC)n1 [S6N8 D4],1.7
19,CCCCCCCCCNc1nc(NCCCN(C)C)nc(SCCCCCCCC)n1 [S8N9 D6],33.3
20,CCCCCCCSc1nc(NCC2CCN(C)CC2)nc(SCCCCCC)n1 [S6S7 D10],21.6
21,CCCCCCCCCCCCCCCCNc1nc(NCCN(CC)CC)nc(SCCCCCCC)n1 [S7N16 D7],6.4
22,CCCCCCCCCCCCCCCSc1nc(NCCCCCC)nc(NCCN(C)C)n1 [S15N6 D1],21.2
23,CCCCCCCCCCCCCCCCCCNc1nc(NCCCN2CCOCC2)nc(SCCCCCCCCC)n1 [S9N18 D8],26.1
24,CCCCCCCCCCCCSc1nc(NCCCCCC)nc(NCCN2CCN(C)CC2)n1 [S12N6 D5],0.2

row,SMILES,Absolute DNA transfection efficiency in HEK293 cells [%]
1,CCCCCCCCCCCCN(CCCCCCCCCCCC)c1nc(NCCN(CC)CC)nc(SCCCCCC)n1 [S6^2N12 D7],0.3
2,CCCCCCCCCCCCCCCCCCNc1nc(NCCN(C)C)nc(SCCCCCCCCCCCCCCCCCC)n1 [S18N18 D1],0.1
3,CCCCCCCCCCCCCCCCSc1nc(NCCCCCCCCCCCCCCC)nc(NCCN(C)C)n1 [S16N15 D1],1.6
4,CCCCCCCCCCCCCNc1nc(NCCN2CCCC2)nc(SCCCCCCCCCCC)n1 [S11N13 D3],17.5
5,CCCCCCCCCCCCCCCNc1nc(NCCN2CCCCC2)nc(SCCCCCCCCCCCC)n1 [S12N15 D4],1.0
6,CCCCCCCCSc1nc(NCCN2CCOCC2)nc(SCCCCCC)n1 [S6S8 D2],2.5
7,CCCCCCCCCCCCCCCNc1nc(NCCCN(C)C)nc(SCCCCCC)n1 [S6N15 D6],25.9
8,CCCCCCCCCCCCCCCCCCSc1nc(NCCCCCCCCCCCCCCC)nc(NCCN2CCOCC2)n1 [S18N15 D2],0.0
9,CCCCCCCCCNc1nc(NCCCN2CCOCC2)nc(SCCCCCCC)n1 [S7N9 D8],4.6
10,CCCCCCCCCCCCCCCNc1nc(NCCCN2CCOCC2)nc(SCCCCCCCCCCCCCCC)n1 [S15N15 D8],0.1
11,CCCCCCCCCCCCCCSc1nc(NCCCCCCCCC)nc(NCCN(CC)CC)n1 [S14N9 D7],10.6
12,CCCCCCCCSc1nc(NCCCCCCC)nc(NCCN(CC)CC)n1 [S8N7 D7],1.4
13,CCCCCCSc1nc(NCCN2CCOCC2)nc(SCCCCCC)n1 [S6S6 D2],0.4
14,CCCCCCCCCCCCCCCSc1nc(NCCCN2CCOCC2)nc(SCCCCCCC)n1 [S7S15 D8],10.9
15,CCCCCCCCCCCCCCCCCCNc1nc(NCCCN(C)C)nc(SCCCCCCCCCCCCCCCCCC)n1 [S18N18 D6],0.4
16,CCCCCCCCCCCCSc1nc(NCCCCCCCCC)nc(NCC2CCN(C)CC2)n1 [S12N9 D10],11.3
17,CCCCCCCCCCCCCCCSc1nc(NCCCCCCCCCCC)nc(NCCN(CC)CC)n1 [S15N11 D7],9.3
18,CCCCCCCCSc1nc(NCCCCCCC)nc(NCCN2CCCCC2)n1 [S8N7 D4],3.8
19,CCCCCCCCCCCSc1nc(NCCN2CCN(C)CC2)nc(SCCCCCCC)n1 [S7S11 D5],32.4
20,CCCCCCCCCCCCCCCCSc1nc(NCCCN2CCN(C)CC2)nc(N(CCCCCCCCCCCC)CCCCCCCCCCCC)n1 [S16^2N12 D9],0.6
21,CCCCCCCCCCCCCCSc1nc(NCCCCCCCCCCCC)nc(NCCCN2CCN(C)CC2)n1 [S14N12 D9],4.1
22,CCCCCCCCCCCCCCSc1nc(NCCCCCC)nc(NCCCN(C)C)n1 [S14N6 D6],30.1
23,CCCCCCCCCCCCCCSc1nc(NCCCCCCCCCCCCC)nc(NCCN2CCN(C)CC2)n1 [S14N13 D5],1.9
24,CCCCCCCCCCCCCCCCCCSc1nc(NCCCCCCCCCCC)nc(NCCN(CC)CC)n1 [S18N11 D7],2.7

row,SMILES,Absolute DNA transfection efficiency in HEK293 cells [%]
1,CCCCCCCCCCCNc1nc(NCC2CCN(C)CC2)nc(SCCCCCCCCCCC)n1 [S11N11 D10],5.6
2,CCCCCCCSc1nc(NCCCCCC)nc(NCC2CCN(C)CC2)n1 [S7N6 D10],6.3
3,CCCCCCCCCCCCCCCCNc1nc(NCCN2CCN(C)CC2)nc(SCCCCCCCCCCCCCCCC)n1 [S16N16 D5],0.5
4,CCCCCCCCCCCCCCCCCCSc1nc(NCCCCCCCC)nc(NCCN2CCOCC2)n1 [S18N8 D2],3.8
5,CCCCCCCCCCCCCNc1nc(NCCN2CCN(C)CC2)nc(SCCCCCCCC)n1 [S8N13 D5],28.3
6,CCCCCCCCCCCCCCCCCCSc1nc(NCCCCCCC)nc(NCCCN(C)C)n1 [S18N7 D6],20.7
7,CCCCCCCCCCSc1nc(NCCN2CCN(C)CC2)nc(SCCCCCCC)n1 [S7S10 D5],10.6
8,CCCCCCCCCCCCCCSc1nc(NCCCCCCCCCCC)nc(NCCN(CC)CC)n1 [S14N11 D7],8.6
9,CCCCCCCCNc1nc(NCCN2CCOCC2)nc(SCCCCCC)n1 [S6N8 D2],0.3
10,CCCCCCCCCCCCCCCCSc1nc(NCCCCCCCCC)nc(NCCN2CCOCC2)n1 [S16N9 D2],7.4
11,CCCCCCCCCCCCN(CCCCCCCCCCCC)c1nc(NCCCN2CCOCC2)nc(SCCCCCCCCCC)n1 [S10^2N12 D8],0.0
12,CCCCCCCCCCCCCNc1nc(NCCN(C)C)nc(SCCCCCCCCCCC)n1 [S11N13 D1],10.6
13,CCCCCCCCNc1nc(NCCN2CCN(C)CC2)nc(SCCCCCC)n1 [S6N8 D5],3.4
14,CCCCCCCCCCCCN(CCCCCCCCCCCC)c1nc(NCCCN(C)C)nc(SCCCCCCCCCCC)n1 [S11^2N12 D6],0.3
15,CCCCCCCCCCCCCCCCCCSc1nc(NCCCCCCCCCCCCC)nc(NCCCN2CCN(C)CC2)n1 [S18N13 D9],1.8
16,CCCCCCCCCCCCCCCCNc1nc(NCCN2CCCCC2)nc(SCCCCCCCCC)n1 [S9N16 D4],8.1
17,CCCCCCCCCCCNc1nc(NCCCN2CCN(C)CC2)nc(SCCCCCCCCCCC)n1 [S11N11 D9],4.9
18,CCCCCCCCNc1nc(NCCN2CCN(C)CC2)nc(SCCCCCCC)n1 [S7N8 D5],22.1
19,CCCCCCCCCCCCCCCNc1nc(NCC2CCN(C)CC2)nc(SCCCCCCCCCCC)n1 [S11N15 D10],7.0
20,CCCCCCCCCCCCCCSc1nc(NCCCCCCCC)nc(NCC2CCN(C)CC2)n1 [S14N8 D10],26.2
21,CCCCCCCCCCCCCCSc1nc(NCCN(CC)CC)nc(SCCCCCCC)n1 [S7S14 D7],4.0
22,CCCCCCCCCCCCCCCCCCNc1nc(NCCN(CC)CC)nc(SCCCCCC)n1 [S6N18 D7],5.2
23,CCCCCCCCCCCCCCCNc1nc(NCCN(C)C)nc(SCCCCCCCCCCCCCC)n1 [S14N15 D1],0.4
24,CCCCCCCCCCCCCCCCCCSc1nc(NCCCCCCCCCCCCCCC)nc(NCCCN2CCN(C)CC2)n1 [S18N15 D9],0.1
